Experimental data as given in patent US20110160223A1, “NMDA Receptor Antagonists for the Treatment of Neuropsychiatric Disorders” (priority 2008, published 2011).
Like-named read-outs stand apart in the source and are kept apart here.

Target: NMDA receptor (NR1 + NR2 subunits) (Rattus norvegicus, UniProt P35439+Q00960)
Test: Two electrode voltage clamp recording from Xenopus laevis oocytes (pH dependence of NMDA antagonism)
Format: cell-based
Protocol: cRNA was synthesized from linearized template cDNA for rat glutamate receptor subunits according to manufacturer specifications (Ambion). Quality of synthesized cRNA was assessed by gel electrophoresis, and quantity was estimated by spectroscopy and gel electrophoresis. Stage V and VI oocytes were surgically removed from the ovaries of large, well-fed and healthy Xenopus laevis anesthetized with 3-amino-benzoic acid ethyl ester (3 gm/l) as previously described. Clusters of isolated oocytes were incubated with 292 U/ml Worthington (Freehold, N.J.) type IV collagenase or 1.3 mg/ml collagenase (Life Technologies, Gaithersburg, Md.; 17018-029) for 2 hr in Ca^2+-free solution comprised of (in mM) 115 NaCl, 2.5 KCl, and 10 HEPES, pH 7.5, with slow agitation to remove the follicular cell layer. Oocytes were then washed extensively in the same solution supplemented with 1.8 mM CaCl2 and maintained in Barth's solution comprised of (in mM): 88 NaCl, 1 KCl, 2.4 NaHCO3, 10 HEPES, 0.82 MgSO4, 0.33 Ca(NO3)2, and 0.91 CaCl2 and supplemented with 100 μg/ml gentamycin, 10 μg/ml streptomycin, and 10 μg/ml penicillin. Oocytes were manually defolliculated and injected within 24 hrs of isolation with 3-5 ng of NR1 subunit cRNA and 7-10 ng of NR2 cRNA subunit in a 50 nl volume, or 5-10 ng of AMPA or kainate receptor cRNAs in a 50 nl volume, and incubated in Barth's solution at 18° C. for 1-7 d. Glass injection pipettes had tip sizes ranging from 10-20 microns, and were backfilled with mineral oil.
Two electrode voltage-clamp recordings were made 2-7 days post-injection as previously described. Oocytes were placed in a dual-track plexiglass recording chamber with a single perfusion line that splits in a Y-configuration to perfuse two oocytes. Dual recordings were made at room temperature (23° C.) using two Warner OC725B two-electrode voltage clamp amplifiers, arranged as recommended by the manufacturer. Glass microelectrodes (1-10 Megaohms) were filled with 300 mM KCl (voltage electrode) or 3 M KCl (current electrode). The bath clamps communicated across silver chloride wires placed into each side of the recording chamber, both of which were assumed to be at a reference potential of 0 mV. Oocytes were perfused with a solution comprised of (in mM) 90 NaCl, 1 KCl, 10 HEPES, and 0.5 BaCl2; pH was adjusted by addition of 1-3 M NaOH of HCl. Oocytes were recorded under voltage clamp at −40 mV. Final concentrations for control application of glutamate (50 μM) plus glycine (30 μM) were achieved by adding appropriate volumes from 100 and 30 mM stock solutions, respectively. In addition, 10 μM final EDTA was obtained by adding a 1:1000 dilution of 10 mM EDTA, in order to chelate contaminant divalent ions such as Zn^2+. Concentration-response curves for experimental compounds were obtained by applying in successive fashion maximal glutamate/glycine, followed by glutamate/glycine plus variable concentrations of experimental compounds. Dose response curves consisting of 4 to 8 concentrations were obtained in this manner. The baseline leak current at −40 mV was measured before and after recording, and the full recording linearly corrected for any change in leak current. Oocytes with glutamate-evoked responses smaller than 50 nA were not included in the analysis. The level of inhibition by applied experimental compounds was expressed as a percent of the initial glutamate response, and averaged together across oocytes from a single frog. Each experiment consisted of recordings from 3 to 10 oocytes obtained from a single frog. Results from 3-6 experiments were pooled, and the average percent responses at antagonist concentrations were fitted by the equation,
Percent Response=(100−minimum)/(1+([conc]/IC50)^nH)+minimum […]

[1] = pH 6.9, Table 18, read-out: IC50 at pH 6.9
[2] = pH 7.6, Table 18, read-out: IC50 at pH 7.6
[3] = pH 6.9, Table 21, read-out: IC50 at pH 6.9
[4] = pH 7.6, Table 21, read-out: IC50 at pH 7.6
[5] = pH 6.9, Table 19, read-out: IC50 at pH 6.9
[6] = pH 7.6, Table 19, read-out: IC50 at pH 7.6
[7] = pH 6.9, Table 17, read-out: IC50 at pH 6.9
[8] = pH 7.6, Table 17, read-out: IC50 at pH 7.6
[9] = pH 6.9, Table 20, read-out: IC50 at pH 6.9
[10] = pH 7.6, Table 20, read-out: IC50 at pH 7.6

NMDA receptor (NR1 + NR2 subunits), sequence (Q00960 27-1482, other chains not shown): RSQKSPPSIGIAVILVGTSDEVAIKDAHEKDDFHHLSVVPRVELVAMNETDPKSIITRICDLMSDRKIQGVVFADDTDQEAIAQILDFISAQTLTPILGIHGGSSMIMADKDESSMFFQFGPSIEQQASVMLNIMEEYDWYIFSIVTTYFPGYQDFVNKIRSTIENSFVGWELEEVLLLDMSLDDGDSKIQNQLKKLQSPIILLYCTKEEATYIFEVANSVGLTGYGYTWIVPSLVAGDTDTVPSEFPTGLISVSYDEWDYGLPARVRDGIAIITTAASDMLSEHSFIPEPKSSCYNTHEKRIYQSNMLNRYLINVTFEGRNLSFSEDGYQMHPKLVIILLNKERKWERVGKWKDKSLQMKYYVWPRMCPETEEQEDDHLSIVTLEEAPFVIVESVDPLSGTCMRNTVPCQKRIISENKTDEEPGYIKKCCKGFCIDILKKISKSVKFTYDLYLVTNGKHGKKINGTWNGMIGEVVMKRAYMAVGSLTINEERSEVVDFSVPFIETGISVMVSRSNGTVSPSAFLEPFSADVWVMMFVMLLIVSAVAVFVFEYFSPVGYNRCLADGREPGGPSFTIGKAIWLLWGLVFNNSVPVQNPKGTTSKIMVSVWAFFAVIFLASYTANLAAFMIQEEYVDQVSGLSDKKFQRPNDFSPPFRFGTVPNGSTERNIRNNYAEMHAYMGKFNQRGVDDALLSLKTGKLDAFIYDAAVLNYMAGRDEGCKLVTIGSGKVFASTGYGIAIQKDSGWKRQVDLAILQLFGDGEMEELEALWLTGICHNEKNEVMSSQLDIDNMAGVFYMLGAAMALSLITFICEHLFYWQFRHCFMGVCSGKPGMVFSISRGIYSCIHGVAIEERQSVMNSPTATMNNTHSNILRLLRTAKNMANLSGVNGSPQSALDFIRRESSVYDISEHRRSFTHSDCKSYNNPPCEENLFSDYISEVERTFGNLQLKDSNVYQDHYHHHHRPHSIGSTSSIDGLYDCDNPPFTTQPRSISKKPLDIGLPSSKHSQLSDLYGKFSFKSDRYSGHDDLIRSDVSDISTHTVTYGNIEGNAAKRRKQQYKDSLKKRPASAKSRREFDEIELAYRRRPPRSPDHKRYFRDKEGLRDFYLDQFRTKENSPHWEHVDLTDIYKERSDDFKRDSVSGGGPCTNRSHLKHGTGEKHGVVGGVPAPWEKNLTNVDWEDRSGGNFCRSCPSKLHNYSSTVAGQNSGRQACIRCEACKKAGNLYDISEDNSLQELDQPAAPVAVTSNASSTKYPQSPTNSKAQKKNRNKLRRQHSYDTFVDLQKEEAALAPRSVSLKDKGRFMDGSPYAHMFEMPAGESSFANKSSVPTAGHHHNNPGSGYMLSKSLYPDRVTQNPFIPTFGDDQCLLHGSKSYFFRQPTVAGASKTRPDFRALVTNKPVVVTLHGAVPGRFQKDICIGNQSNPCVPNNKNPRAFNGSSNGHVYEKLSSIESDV

Cc1ccc(N2CCN(C[C@@H](O)COc3ccc4[nH]c(=O)oc4c3)CC2)cc1
IC50 [1]: 72 nM
IC50 [2]: 644 nM

O=C(COc1ccc2[nH]c(=O)oc2c1)N1CCN(c2ccc(Cl)cc2)CC1
IC50 [3]: 189 nM
IC50 [4]: 243 nM

O=C(COc1ccc2[nH]c(=O)oc2c1)N1CCN(c2ccc(F)c(F)c2)CC1
IC50 [3]: 307 nM
IC50 [4]: 467 nM

O=C(COc1ccc2[nH]c(=O)oc2c1)N1CCN(c2ccc(Cl)c(Cl)c2)CC1 [drawing 768]
IC50 [3]: 41 nM
IC50 [4]: 45 nM

Oc1ccc(OC[C@H](O)CN2CCN(c3ccc(Cl)c(Cl)c3)CC2)cc1
IC50 [5]: 131 nM
IC50 [6]: 611 nM

CS(=O)(=O)Nc1ccc(CCCN2CCN(c3ccc(Cl)c(Cl)c3)CC2)cc1
IC50 [3]: 230 nM
IC50 [4]: 2730 nM

CS(=O)(=O)Nc1ccc(OCC(O)CN2CCN(c3ccc(Cl)cc3)CC2)cc1 (stereo not drawn)
IC50 [7]: 32 nM
IC50 [8]: 270 nM

Cc1ccc(N2CCN(CC(O)COc3ccc(O)cc3)CC2)cc1 (stereo not drawn)
IC50 [5]: 70 nM
IC50 [6]: 260 nM

O[C@H](COc1ccc2[nH]ccc2c1)CN1CCN(c2ccc(Cl)cc2)CC1
IC50 (pH 6.9, Table 22, read-out: IC50 pH 6.9): > 10000 nM
IC50 (pH 7.6, Table 22, read-out: IC50 pH 7.6): > 10000 nM

CS(=O)(=O)Nc1ccc(CCC(=O)NCCNc2ccc(Cl)c(Cl)c2)cc1
IC50 [3]: 30 nM
IC50 [4]: 55 nM

CS(=O)(=O)Nc1ccc(CCCN2CCN(c3ccc(Cl)c(Cl)c3)C2=O)cc1
IC50 [3]: 160 nM
IC50 [4]: 809 nM

COC(=O)Nc1ccc(OCCCN2CCN(c3ccc(F)cc3)CC2)cc1
IC50 [9]: 1540 nM
IC50 [10]: 16200 nM

O=C(CCc1ccc(O)cc1)NCCNc1ccc(Cl)c(Cl)c1
IC50 [3]: 210 nM
IC50 [4]: 339 nM

O=c1[nH]c2ccc(OCC(O)CNCCc3ccc(Cl)c(Cl)c3)cc2o1 (stereo not drawn)
IC50 [1]: 185 nM
IC50 [2]: 446 nM

Oc1ccc(OC[C@H](O)CN2CCN(c3ccc(F)cc3F)CC2)cc1
IC50 [5]: 529 nM
IC50 [6]: 3560 nM

Oc1ccc(OCC(O)CNCCc2ccc(Cl)c(Cl)c2)cc1 (stereo not drawn)
IC50 [5]: 197 nM
IC50 [6]: 501 nM

CS(=O)(=O)Nc1ccc(OCC(O)CN2CCN(c3ccccc3)CC2)cc1 (stereo not drawn)
IC50 [7]: 213 nM
IC50 [8]: 1020 nM

Oc1ccc(OC[C@H](O)CN2CCN(c3cccc(Cl)c3)CC2)cc1
IC50 [5]: 257 nM
IC50 [6]: 4800 nM

CS(=O)(=O)Nc1ccc(OCC(=O)N2CCN(c3ccc(Cl)c(Cl)c3)CC2)cc1
IC50 [3]: 40 nM
IC50 [4]: 129 nM

Cc1ccccc1N1CCN(C[C@@H](O)COc2ccc(O)cc2)CC1
IC50 [5]: 430 nM
IC50 [6]: 3930 nM

Oc1ccc(OCC(O)CN2CCN(c3ccc(F)c(F)c3)CC2)cc1 (stereo not drawn)
IC50 [5]: 87 nM
IC50 [6]: 980 nM

CS(=O)(=O)Nc1ccc(CCC(=O)NC/C=C/c2ccc(Cl)c(Cl)c2)cc1
IC50 [3]: 10 nM
IC50 [4]: 70 nM

Oc1ccc(OCC(O)CN2CCN(c3ccc(-c4ccccc4)cc3)CC2)cc1 (stereo not drawn)
IC50 [5]: 6950 nM
IC50 [6]: 191000 nM

COc1ccc(N2CCN(C[C@@H](O)COc3ccc(O)cc3)CC2)cc1
IC50 [5]: 562 nM
IC50 [6]: 9740 nM

O=c1[nH]c2ccc(OC[C@H](O)CN3CCN(c4ccc(F)c(F)c4)CC3)cc2o1
IC50 [1]: 145 nM
IC50 [2]: 1700 nM

Oc1ccc(OCC(O)CNCCc2ccc(Cl)c(Cl)c2)c(F)c1 (stereo not drawn)
IC50 [5]: 116 nM
IC50 [6]: 330 nM

CCNC(=O)Nc1ccc(OCCCN2CCN(c3ccc(F)cc3)CC2)cc1
IC50 [9]: 3030 nM
IC50 [10]: 15700 nM

Oc1ccc(OC[C@H](O)CN2CCN(c3ccc(Cl)cc3)CC2)cc1
IC50 [5]: 80 nM
IC50 [6]: 814 nM

N#Cc1ccc(N2CCN(C[C@@H](O)COc3ccc(O)cc3)CC2)cc1
IC50 [5]: 460 nM
IC50 [6]: 4370 nM

Oc1ccc(OCC(O)CNCCc2ccc(Cl)c(Cl)c2)cc1F (stereo not drawn)
IC50 [5]: 114 nM
IC50 [6]: 549 nM

CS(=O)(=O)Nc1ccc(OCC(O)CN2CCN(c3ccc(F)c(F)c3)CC2)cc1 (stereo not drawn)
IC50 [7]: 31 nM
IC50 [8]: 557 nM

NC(=O)Nc1ccc(OCCCN2CCN(c3ccc(F)c(F)c3)CC2)cc1
IC50 [9]: 82 nM
IC50 [10]: 696 nM

Oc1ccc(OCC(O)CN2CCN(c3cccc(C(F)(F)F)c3)CC2)cc1 (stereo not drawn)
IC50 [5]: 386 nM
IC50 [6]: 3790 nM

O=C(COc1ccc2[nH]c(=O)oc2c1)NCCNc1ccc(Cl)c(Cl)c1
IC50 [3]: 80 nM
IC50 [4]: 150 nM

Oc1ccc(OCC(O)CN2CCN(c3ccc(O)cc3)CC2)cc1 (stereo not drawn)
IC50 [5]: 576 nM
IC50 [6]: 4700 nM

Oc1ccc(OC[C@H](O)CN2CCN(c3ccc(F)c(F)c3)CC2)cc1
IC50 [5]: 50 nM
IC50 [6]: 272 nM

CS(=O)(=O)Nc1ccc(CCC(=O)N2CCN(c3ccc(Cl)c(Cl)c3)CC2)cc1
IC50 [3]: 670 nM
IC50 [4]: 5330 nM

NC(=O)Nc1ccc(OC[C@@H](O)CN2CCN(c3ccc(Cl)cc3)CC2)cc1 [drawing 755]
IC50 [9]: 46 nM
IC50 [10]: 452 nM

CS(=O)(=O)Nc1ccc(OCC(O)CN2CCN(c3ccccn3)CC2)cc1 (stereo not drawn)
IC50 [7]: 1810 nM
IC50 [8]: 12700 nM

Oc1ccc(OC[C@H](O)CN2CCC(O)(c3ccccc3)CC2)cc1
IC50 [5]: 191 nM
IC50 [6]: 298 nM

Cc1ccc(N2CCN(CC(O)COc3ccc(O)cc3)CC2)cc1C (stereo not drawn)
IC50 [5]: 1500 nM
IC50 [6]: 5790 nM

CS(=O)(=O)Nc1ccc(OCC(O)CN2CCN(c3ccc(Cl)c(Cl)c3)CC2)cc1 (stereo not drawn)
IC50 [7]: 296 nM
IC50 [8]: 1020 nM

O=c1[nH]c2ccc(OCC(O)CNCCNc3ccc(Cl)cc3)cc2o1 (stereo not drawn)
IC50 [1]: 25 nM
IC50 [2]: 97 nM

NC(=O)Nc1ccc(OCCCN2CCN(c3ccc(F)cc3)CC2)cc1
IC50 [9]: 117 nM
IC50 [10]: 625 nM

CS(=O)(=O)Nc1ccc(CCC(=O)N2CCN(c3ccc(F)c(F)c3)CC2)cc1
IC50 [3]: 2200 nM
IC50 [4]: 8400 nM

Oc1ccc(OCC(O)CN2CCN(c3ccccc3Cl)CC2)cc1 (stereo not drawn)
IC50 [5]: 978 nM
IC50 [6]: 4390 nM

C=C(COc1ccc(NC(N)=O)cc1)CN1CCN(c2ccc(F)c(F)c2)CC1
IC50 [9]: 557 nM
IC50 [10]: 10400 nM

CS(=O)(=O)Nc1ccc(OCCNCCNc2ccc(Cl)c(Cl)c2)cc1
IC50 [3]: 14 nM
IC50 [4]: 36 nM

CS(=O)(=O)Nc1ccc(OCC(O)CNC/C=C/c2ccc(F)c(F)c2)cc1 (stereo not drawn)
IC50 [7]: 38 nM
IC50 [8]: 71 nM

CS(=O)(=O)Nc1ccc(OCC(O)CNCCNc2ccccc2)cc1 (stereo not drawn)
IC50 [7]: 55 nM
IC50 [8]: 133 nM

Oc1ccc(OCC(O)CN2CCN(c3ccc(C(F)(F)F)cc3)CC2)cc1 (stereo not drawn)
IC50 [5]: 113 nM
IC50 [6]: 448 nM

Oc1ccc(OC[C@H](O)CN2CCN(c3ccccc3F)CC2)cc1
IC50 [5]: 541 nM
IC50 [6]: 1730 nM

CS(=O)(=O)Nc1ccc(OCC(O)CNC/C=C/c2ccc(Cl)c(Cl)c2)cc1 (stereo not drawn)
IC50 [7]: 7 nM
IC50 [8]: 38 nM

O=c1[nH]c2ccc(OC[C@H](O)CN3CCN(c4ccc(Cl)c(Cl)c4)CC3)cc2o1
IC50 [1]: 185 nM
IC50 [2]: 1500 nM

Oc1ccc(OCC(O)CN2CCN(c3ccccc3)CC2)cc1 (stereo not drawn)
IC50 [5]: 217 nM
IC50 [6]: 476 nM

O=c1[nH]c2ccc(OCC(O)CN3CCN(c4ccc(Cl)cc4)CC3)cc2o1 (stereo not drawn)
IC50 [1]: 79 nM
IC50 [2]: 726 nM

N#Cc1ccccc1N1CCN(C[C@@H](O)COc2ccc(O)cc2)CC1
IC50 [5]: 3210 nM
IC50 [6]: 8330 nM

CS(=O)(=O)Nc1ccc(OCC(=O)NCCNc2ccc(Cl)c(Cl)c2)cc1
IC50 [3]: 13 nM
IC50 [4]: 58 nM

CS(=O)(=O)Nc1ccc(OCC(O)CN2CCN(c3ccncc3)CC2)cc1 (stereo not drawn)
IC50 [7]: > 30000 nM
IC50 [8]: > 30000 nM

O=C(COc1ccc(O)cc1)NCCNc1ccc(Cl)c(Cl)c1
IC50 [3]: 280 nM
IC50 [4]: 515 nM
